B1: wheat bran phytase: phytase purified from wheat bran according to the invention (SEQ ID NO: 7) (protein, listed as Triticum aestivum)
chain: MWMWRGSLPLLLLAAAVAAAAEPASTLEGPSRPVTVPLREDRGHAVDLPDTDPRVQRRVTGWAPEQIAVALSAAPTSAWVSWITGDFQMGGAVKPLDPGTVGSVVRYGLAADSLVREATGDALVYSQLYPFEGLQNYTSGIIHHVRLQGLEPGTKYYYQCGDPAIPGAMSAVHAFRTMPAVGPRSYPGRIAVVGDLGLTYNTTSTVDHMASNRPDLVLLVGDVCYANMYLTNGTGADCYSCAFGKSTPIHETYQPRWDYWGRYMEAVTSGTPMMVVEGNHEIEEQIGNKTFAAYRSRFAFPSTESGSFSPFYYSFDAGGIHFLMLGAYADYGRSGEQYRWLEKDLAKVDRSVTPWLVAGWHAPWYTTYKAHYREVECMRVAMEELLYSHGLDIAFTGHVHAYERSNRVFNYTLDPCGAVHISVGDGGNREKMATTHADEPGHCPDPRPKPNAFIGGFCAFNFTSGPAAGRFCWDRQPDYSAYRESSFGHGILEVKNETHALWRWHRNQDMYGSAGDEIYIVREPHRCLHKHNWTRPAHGP

Key:
[1] = test system: earlier described phytase activity (wheat bran); settings: activity with optimum at about pH 5.0; cited from earlier work
soybean phytase = settings: cited from earlier work
[2] = test system: phytase activity of fraction F1; settings: fraction F1, pH optimum 5.6; cited from earlier work
[3] = Determination of the isoelectric point (non-denaturing isoelectric focusing); assay type: physicochemical; settings: visualised with 1-naphtylphosphate and Farst Garnet GBC
Description: FIG. 5: depicts the isoelectric focusing of the purified wheat bran phytase. A double band at pH 7.4 is visible after incubation with 1-naphtylphosphate and Farst Garnet GBC.
Proteins were focused at 11° C. for a total of 2.5 kVh in non-denaturing isoelectric-focusing polyacrylamid gels (IEF)(Ampholine PAGplate pH 3.5–9.5 (Pharmacia)). An IEF calibration kit (Pharmacia) was applied to determine the pH-gradient across the gel. The IEF markers were visualised by Coomassie staining according to the recommendations of the manufacturer. The presence of acid phosphatase was identified by incubation of the gel at 37° C. in 100 ml 0.05M citrate, pH 4.5 with 50 mg Na-1-naphtyl phosphate (Merck 6815), 25 mg Farst Garnet GBC (Sigma F-8761) and 0.5 ml 10% MgCl.

Molecule	inhibition of activity by phosphate [1]	enzyme active (soybean phytase; 0.5 μM phosphate) [%]	Ki (soybean phytase; read-out: apparent Ki, product inhibition by phosphate) [µM]	inhibition of activity by phosphate [2]	isoelectric focusing, double band at pH [3] [pH]
phosphate	not inhibited at all	67	18	inhibited	
B1					7.4
